Experimental data taken from US12630536B2, “Cyanotriazine derivative, preparation method therefor, and application thereof” (Chengdu Fanxi Biopharma Co., LTD., priority 2020, dated 2026).
Read-outs that look alike come from different tables or passages of the source.

Columns and labels:
[1] = test system: TR beta-UAS-bla HEK 293T Cells; assay: TR cell-based agonist detection, β-lactamase reporter (LiveBLAzer FRET B/G), TR beta; conditions: for Emax: read-out: Maximum activity ratio (A460/A530); for EC50: read-out: TR_β_EC50
Experimental: (§1) A method for testing a THR-α/β activation activity of a compound by an in-vitro cell level was as follows.
(§2) Compounds were transferred to a 384-well plate by an ECHO liquid workstation, and each compound was diluted by 3 times with 10 gradient concentrations, which was in triplicate. 1.5×10^4 DMEM-cultured cells (TR beta-UAS-bla HEK 293T Cells) or 1.0×10^4 TR alpha-UAS-bla HEK 293T Cells were placed in the 384-well plate. HEK 293T-TR beta was incubated in an incubator for 16 hours, and HEK 293T-TR alpha was incubated in an incubator for 24 hours. A LiveBLAzer™-FRET B/G (CCF4-AM) substrate was added into the cell plate to detect expression of β-lactamase in cells, and under excitation of 409 nm, a product produced fluorescence with a wavelength of 447 nm. When the β-lactamase was not expressed, under excitation of 409 nm, fluorescence with a wavelength of 520 nm was directly produced through FRET. Combination between the compound and the protein was determined by detecting a ratio of the two kinds of fluorescence (blue/green, 460 nm/530 nm), thus calculating EC50 of the compound. […] Calculation of a factor Z (greater than 0.5) would be used for monitoring a stability of each experiment.

[2] = molecular target: T1, THR-β ligand-binding domain (H6-THR-β) (Homo sapiens, UniProt P10828); assay: Co-activated peptide recruitment test of THR-β/RXR/GRIP1 (TR_LBD agonist detection, HTRF); format: biochemical; conditions: for EC50: Detection of TR_LBD agonist, read-out: TR_beta_EC50; for Measurement of cpd/T3 (maximum ratio) / Maximum activity ratio (A520/A495) / α/β: TR_LBD agonist; for Measurement of cpd/T3 (maximum ratio) / Maximum activity ratio (A520/A495): TR_β; for Measurement of cpd/T3 (maximum ratio): maximum relative to T3; for α/β: ratio TR_α EC50 / TR_β EC50
T1 construct: made in house; host or cells: Escherichia coli BL21 (DE3), vector pET28a
T1 sequence (P10828 217-461 limits assumed): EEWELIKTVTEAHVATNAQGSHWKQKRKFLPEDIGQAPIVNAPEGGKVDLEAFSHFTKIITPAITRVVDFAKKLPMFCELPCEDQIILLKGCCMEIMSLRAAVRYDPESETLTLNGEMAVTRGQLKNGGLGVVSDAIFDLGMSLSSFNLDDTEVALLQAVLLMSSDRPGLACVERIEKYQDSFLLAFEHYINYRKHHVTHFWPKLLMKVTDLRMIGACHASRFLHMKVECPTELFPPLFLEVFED
T1 sequence (P19793 225-462 partner limits assumed): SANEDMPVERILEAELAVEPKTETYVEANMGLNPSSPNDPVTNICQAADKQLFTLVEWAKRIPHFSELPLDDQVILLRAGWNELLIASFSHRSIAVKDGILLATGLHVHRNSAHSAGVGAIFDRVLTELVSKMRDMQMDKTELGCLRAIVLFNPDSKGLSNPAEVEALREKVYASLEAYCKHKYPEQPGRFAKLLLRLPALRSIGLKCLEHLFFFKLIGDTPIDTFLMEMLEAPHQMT
T1 sequence (Q15596 679-703 partner limits assumed): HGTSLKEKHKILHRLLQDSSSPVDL
Experimental: (§3) A ligand binding domain of THR-β (amino acids 148-410) (H6-THR-β) and a ligand binding domain of THR-α (amino acids 202-461) (H6-TRα) were cloned into E. coli expression vector pET28a (Novagen, Milwaukee, Wis.) containing N-terminal six His sequences. The resulting recombinant six-His-tagged protein was produced in E. coli BL21(DE3) cells. The cells were grown in Terrific Broth (self-used self-prepared Bacto tryptone (3.3%, w/v), Difico yeast extract (2.0%, w/v) and NaCl (0.5%, w/v) medium), incubated at 25° C. for 24 hours using a shake flask in 0.2 mM IPTG, harvested or dissolved with 5 volumes of buffer A (0.05 M Tris, 0.3 M NaCl, 1% W/V betaine, 0.01 M imidazole, 0.02 M b-mercaptoethanol, pH 8.0). Lysozyme (1.0 mg/ml, Sigma) and CompleteProtease Inhibitor Cocktail (Roche Diagnostics Gmbh) were added to the slurry and the solution was sonicated for one minute and 5 times at 4° C. The suspension was centrifuged at 127,300 RCF for 2 hours in a Ti45 Beckmann rotor and the supernatant was loaded onto an NI NTAAgarose (Quigen 30210) column. After washing with the buffer A, […] or H6-THR-α was eluted with the buffer A containing 0.25 M imidazole.
(§4) 30 microliters of H6-THR-β (50 nM) or H6-THR-α in 50 mM Hepes, pH 7.0, 1 mM DTT, 0.05% NP40 and 0.2 mg/ml BSA (binding buffer) were mixed with an equal volume of EE-RxRα (50 nM) in the binding buffer. […] Aliquot ([…]) was transferred to a 384-well black microtiter plate. HTRF signal was read on a Victor5 reader (PerkinElmer Life and Analytical Sciences). EC50 was calculated.
(§5) Gene clones expressing a ligand-binding domain (amino acids 148-410) of THR-β (H6-THR-β) and a ligand-binding domain (amino acids 202-461) of THR-α (H6-THR-α) were inserted into an Escherichia coli expression vector pET28a, and the expression vector contained one N-terminal 6-His sequence. The expression vector was introduced into an Escherichia coli BL21 (DE3) strain to produce a recombinant protein with a His tag. […] After finishing culturing, a bacterium in culture was collected, and the collected bacterium was resuspended with a lysis solution (0.05 M Tris, 0.3 M NaCl, 1% W/V betaine, 0.01 M imidazole, 0.02 M β-mercaptoethanol, and pH 8.0) with a volume 5 times that of the bacterium, and lysozyme and protease inhibitors were added at the same time, the treated bacteria was subjected to ultrasonic lysis (5 times per minute) in ice bath (4° C.). A lysed suspension was centrifuged at 127300 RCF for 2 hours, a supernatant was loaded on a NI_NTA agarose (Quigen 30210) column, and after washing with a buffer A, an H6-TRβ or H6-TRα protein was eluted with the buffer A containing 0.25 M imidazole.
(§6) A human retinol X receptor (amino acid 225-462) (RxRα) was subjected to engineering modification, so that an N-terminal of the human retinol X receptor had His6 and EE(EFMPME) tags, and then the human retinol X receptor was cloned into a pACYC vector, and produced a His6 EEtagged protein in Escherichia coli. IPTG with a final concentration of 0.1 mM was added into the culture medium for induction, and cultured in a shaking flask at 18° C. for 18 hours. After finishing culturing, a bacterium in culture was collected, and the collected bacterium was re-suspended with a lysis solution (0.05 M Tris, 0.3 M NaCl, 1% W/V betaine, 0.01 M imidazole, 0.02 β-mercaptoethanol, and pH 8.0) with a volume 5 times that of the bacterium, lysozyme and protease inhibitors were added at the same time, and stirred at 4° C. for 30 minutes. Then, a suspension was subjected to an ultrasonic treatment at 4° C. for 30 seconds for 5 times. The suspension was collected, and centrifuged at 12000 RCF for 20 minutes. A supernatant was collected, and the supernatant was filtered with a membrane with a pore size of 0.45 μm, and then added with 0.5% NP-40.

[3] = molecular target: T2, THR-α ligand-binding domain (H6-THR-α) (Homo sapiens, UniProt P10827); assay: Co-activated peptide recruitment test of THR-α/RXR/GRIP1 (TR_LBD agonist detection, HTRF); format: biochemical; conditions: for EC50: Detection of TR_LBD agonist, read-out: TR_α_EC50; for Maximum activity ratio (A520/A495) / Measurement of cpd/T3 (maximum ratio): TR_LBD agonist, TR_α; for Measurement of cpd/T3 (maximum ratio): maximum relative to T3
T2 construct: made in house; host or cells: Escherichia coli BL21 (DE3), vector pET28a
T2 sequence (P10827 148-410 isoform P10827-2 limits assumed): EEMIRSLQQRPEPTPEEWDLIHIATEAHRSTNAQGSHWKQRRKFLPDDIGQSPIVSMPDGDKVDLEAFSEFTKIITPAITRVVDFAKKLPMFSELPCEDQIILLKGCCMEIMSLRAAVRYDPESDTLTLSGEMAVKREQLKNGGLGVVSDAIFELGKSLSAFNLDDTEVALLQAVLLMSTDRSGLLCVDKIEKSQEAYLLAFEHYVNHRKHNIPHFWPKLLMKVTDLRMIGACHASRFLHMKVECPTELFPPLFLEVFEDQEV
T2 sequence (P19793 225-462 partner limits assumed): T1 sequence (P19793 225-462 partner limits assumed)
T2 sequence (Q15596 679-703 partner limits assumed): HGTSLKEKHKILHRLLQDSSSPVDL
Experimental: as §3, §4, §5, §6

[4] = test system: TR alpha-UAS-bla HEK 293T Cells; assay: TR cell-based agonist detection, β-lactamase reporter (LiveBLAzer FRET B/G), TR alpha; conditions: for Emax: HEK-293T, 24 h, read-out: Maximum activity ratio; for EC50: Detection of TR_cell-based agonist, HEK 293T-TR alpha, 24 hours, read-out: TR_α_EC50
Experimental: as §1, §2

[5] = Homo sapiens, HEK-293T, 16 h, TR_cell-based agonist, TR_β
[6] = Homo sapiens, Detection of TR_cell-based agonist, HEK 293T-TR beta, 16 hours
[7] = Homo sapiens, TR_cell-based agonist, TR_α

| Structure (SMILES) | Emax [1, 5] [%] | EC50 [1, 6] [nM] | EC50 [2] [nM] | Measurement of cpd/T3 (maximum ratio) [2] [%] | EC50 [3] [nM] | Emax [4, 7] [%] | EC50 ([4]; Homo sapiens) [nM] | Maximum activity ratio (A520/A495) [2] | α/β [2] | Maximum activity ratio (A520/A495) [3] | Measurement of cpd/T3 (maximum ratio) [3] [%] | EC50 ([1]; Detection of TR_cell-based agonist, HEK 293T-TR beta, 16 hours) [nM] | Maximum activity ratio (A460/A530) ([1]; TR_cell-based agonist, TR_β) | EC50 [4] [nM] | Maximum activity ratio ([4]; TR_cell-based agonist, TR_α) | Measurement of cpd/T3 (maximum ratio) ([1]; TR_cell-based agonist, TR_β, maximum relative to T3) [%] | α/β ([1]; TR_cell-based agonist, ratio TR_α EC50 / TR_β EC50) | Test cpd/T3 (maximum ratio) ([4]; TR_cell-based agonist, TR_α, maximum relative to T3) [%] | EC50 ([1]; Homo sapiens, HEK-293T, 16 h) [nM] |
| --- | --- | --- | --- | --- | --- | --- | --- | --- | --- | --- | --- | --- | --- | --- | --- | --- | --- | --- | --- |
| Cn1cnc2cc(Oc3c(Cl)cc(-n4nc(C#N)c(=O)[nH]c4=O)cc3Cl)ccc21 [Compound 2, 2-(3,5-dichloro-4-((1-methyl-1H-benzo[d]imidazol-5-yl)oxy)phenyl)-3,5-dioxo-2,3,4,5-tetrahydro-1,2,4-triazine-6-carbonitrile] | 14.5 | > 20000 | 154 | 22.1 | > 5000 | 35 | > 20000 |  |  |  |  |  |  |  |  |  |  |  |  |
| Cn1cnc2cc(Oc3c(Br)cc(-n4nc(C#N)c(=O)[nH]c4=O)cc3Br)ccc21 [Compound 4, 2-(3,5-dibromo-4-((1-methyl-1H-benzo[d]imidazol-5-yl)oxy)phenyl)-3,5-dioxo-2,3,4,5-tetrahydro-1,2,4-triazine-6-carbonitrile] | 16.6 | > 20000 | 51.7 | 26.6 | 581 | 40 | > 20000 | 1.46 | 11.25 | 1.59 | 29.5 |  |  |  |  |  |  |  |  |
| N#Cc1nn(-c2cc(Cl)c(Oc3ccc4ncn(CCN5CCCC5)c4c3)c(Cl)c2)c(=O)[nH]c1=O [Compound 5] |  |  | 45.5 | 49.1 | 1310 |  |  | 2.69 | 28.81 | 2.45 | 45.5 | > 20000 | 0.134 | > 20000 | 0.42 |  |  |  |  |
| N#Cc1nn(-c2cc(Cl)c(Oc3ccc4ncn(C5CCNC5)c4c3)c(Cl)c2)c(=O)[nH]c1=O (stereo not drawn) [Compound 6] |  |  | > 5000 |  |  |  |  |  |  |  |  |  |  |  |  |  |  |  |  |
| N#Cc1nn(-c2cc(Cl)c(Oc3ccc4ncn(C5CCN(Cc6ccccc6)C5)c4c3)c(Cl)c2)c(=O)[nH]c1=O (stereo not drawn) [Compound 7, 2-(4-((1-(1-benzylpyrrolidin-3-yl)-1H-benzo[d]imidazol-6-yl)oxy)-3,5-dichlorophenyl)-3,5-dioxo-2,3,4,5-tetrahydro-1,2,4-triazine-6-carbonitrile] | 11.6 | > 20000 | 13.4 | 22.6 | > 5000 | 19 | > 20000 |  |  |  |  |  |  |  |  |  |  |  |  |
| N#Cc1nn(-c2cc(Cl)c(Oc3ccc4ncn(C5CCCC5)c4c3)c(Cl)c2)c(=O)[nH]c1=O [Compound 8, 2-(3,5-dichloro-4-((1-cyclopen-tyl-1H-benzo[d]imidazol-6-yl)oxy)phenyl)-3,5-dioxo-2,3,4,5-tetrahydro-1,2,4-triazine-6-carbonitrile] | 33.9 | 596 | 5.48 | 54.0 | 55 | 72 | 2200 | 2.96 | 10.04 | 2.32 | 43.0 |  |  |  |  | 6.2 | 3.69 | 32.7 |  |
| Cn1c(CCc2ccccc2)nc2cc(Oc3c(Cl)cc(-n4nc(C#N)c(=O)[nH]c4=O)cc3Cl)ccc21 [Compound 9, 2-(3,5-dichloro-4-((1-methyl-2-phenethyl-1H-benzo[d]imidazol-5-yl)oxy)phenyl)-3,5-dioxo-2,3,4,5-tetrahydro-1,2,4-triazine-6-carbonitrile] | 20.4 | > 20000 | 14.8 | 33.6 | > 5000 | 31 | > 20000 | 1.84 | >337.84 | 1.39 |  |  |  |  |  |  |  |  |  |
| N[C@@H](Cc1cc(I)c(Oc2ccc(O)c(I)c2)c(I)c1)C(=O)O [Compound T3, 3,5,3′-tri-iodine-L-thyronine, reference compound] |  |  |  |  |  |  | 0.055 |  |  |  |  |  |  |  |  |  |  |  | 0.325 |
